Laboratory results taken from patent US20220000871A1, “METHODS AND COMPOSITIONS FOR TREATING NEURODEGENERATIVE DISEASES USING MODULATORS OF PHOSPHOGLYCERATE KINASE 1 (PGK1) ACTIVITY” (UNIVERSITY OF IOWA RESEARCH FOUNDATION, priority 2019, published 2022).

What was measured:
[1] = tested on: Hela cell stably expressed FUS-GFP; assay: Hela cells stably expressing FUS-GFP; assay type: cell-based
Text: FIG. 19. Relative ATP levels in Hela cells expressing FUS-GTP after treatment with alfazosin (AZ) and rotenone (Rot).
FIG. 20. Expression levels of FUS-GTP in cells treated with alfazosin (AZ), rotenone (Rot), and 17AAG, an inhibitor of the ATPase of HSP90.
FIG. 21. Fluorescence recovery of FUS-GTP in Hela cells after photobleaching.
We studied Hela cell stably expressed FUS-GFP to determine whether alfazosin (AZ) affected the molecule biology of FUS. (See FIG. 19). FUS forms phase-separated aggregates in cells and is commonly used to test agents that enhance or inhibit aggregate formation. The cells were maintained under mild hypoxic condition (5% oxygen), in which mitochondria function at their highest level. Alfazosin (AZ) was added in the culture medium with or without rotenone, a mitochondrial respiration inhibitor. 60 hours later, we measured the ATP level. The control (without AZ) is set as 1 (N=3).
We quantified FUS-GFP protein levels using actin as a protein loading control. (See FIG. 20). Rotenone (Rot) is a mitochondrial respiration inhibitor, 17AAG is an inhibitor of the ATPase of HSP90. The control level of FUS/actin is set as 1, and relative ratio of other treatment is compared.
(See FIG. 21). After 30 seconds photobleaching, the recovery of GFP signal was measured and plotted. N=10.

[2] = tested on: Hek293T cells expressing APPswe-GFP; assay: Hek293T cells transfected with APPswe-GFP; assay type: cell-based; settings: 24 hours
Text: FIG. 22. Expression of amyloid precursor protein (APP) Swedish mutation tagged with GFP (APPswe-GFP) in transfected Hek293T cells. Left panel—expression of GFP in cells treated with alfazosin (AZ). Right panel—relative intensity versus treatment with increasing concentrations of AZ.
FIG. 23. Western blot quantification of APPswe-GFP in transfected Hek293T cells treated with increasing concentration of alfazosin (AZ).
We also studied Hek293T cells that were transfected with the amyloid precursor protein (APP) Swedish mutation tagged with GFP (APPswe-GFP). (See FIG. 22). After transfection, AZ (1-10 μM) was added for 24 hours. The GFP intensity without AZ treatment was set as 1.
AZ (1-100 μM) was added for 24 hours to Hek293T cells expressing APPswe-GFP. Then, cell lysates were collected for protein quantification by western blot. (See FIG. 23). The APP/actin ratio was plotted.

[3] = tested on: M17 human neuroblastoma cells; assay: Glycolysis and mitochondrial function in M17 cells; settings: in vitro, 10 μM, 24 hr (ECAR)
Method: Cells were incubated with mild hypoxia for 12 hr before study. Cells were cultured in a sealed chamber (Stemcell Technologies Vancouver, Canada) that was flushed with a humidified gas mixture composed of 5% 02, 5% carbon dioxide (CO2), and 90% nitrogen (N2) for 12 hr. […] Assays of ATP, pyruvate, and citrate synthase activities (CS) were performed according to the manufacturer's instructions.
A Seahorse XV analyzer (XF^e-24, Seahorse Bioscience, Billerica, Mass., USA) was used to measure the oxygen consumption rate (OCR) and the extracellular acidification rate (ECAR) as previously described (18). The M17 cells and iPS cells were seeded in XF^e 24-well plates (Seahorse Bioscience), while the plates used for iPS cells were poly-D-lysine pre-coated. Assay medium was prepared by supplementing Seahorse XF^eBaseMedium minimal DMEM (Seahorse Bioscience) with 2 mM L-glutamine for a Glycolysis Stress Test assay or 2 mM L-glutamine, 1 mM pyruvate and 10 mM glucose for a Mito Stress Test assay (Sigma). pH was adjusted to 7.4 at 37° C. Probes (Seahorse Bioscience) were hydrated in the calibrant (Seahorse Bioscience) in a non-CO2 incubator at 37° C. overnight. Cells were washed twice with assay medium and kept in a non-CO2 incubator at 37° C. for 1 hr before analysis. Glucose, oligomycin and 2-deoxy-glucose (2-DG) were pre-loaded in the probe plate for Glycolysis Stress Test, while oligomycin, FCCP and a mixture of rotenone and antimycin A were used for Mito Stress Test.
Citrate synthase (CS) activity, LDH assay and pyruvate level were detected using commercial kits according to the manufacturer's directions. ATP content in animal tissues and M17 cells were detected with the ATP assay kit following the manufacturer's directions.

MPTP-treated mice = assay: MPTP mouse model; assay type: in vivo; settings: SNc, western blot, FIG. 17B
Method: A) Schematic for experiments in panels B-K. C57BL/6 mice (8 week-old) received 4 i.p. injections of MPTP (20 mg/kg at 2 hr intervals) or vehicle on day 0. […] N=6. […] Quantification of TH protein normalized to control (C,D). N=6. E-G) Example of immunostaining of TH in SNc and striatum (E, scale bars, 500 μm SNc, 1 mm striatum). Quantification of TH-positive neurons in SNc (F) and TH intensity in the striatum (G). N=6. H,I) Dopamine (DA) content in striatum and SnC. N=6. J) Percentage of TH-positive neurons that were positive for TUNEL staining. N=6. K) Behavioral response of mice in rotarod test. Data are duration that mice remained on an accelerated rolling rod normalized to mice at day 0. N=8. Data are examples and mean±SEM. […] Statistical analysis at day 7 and day 14 was Mann-Whitney. In the figure, *p<0.05, **p<0.01.
FIG. 10. […] A) Schematic of experiments in panels B-F. C57BL/6 mice (8 week-old) received 4 i.p. injections of MPTP (20 mg/kg at 2 hr intervals) or vehicle on day 0. […] B,C) Pyruvate and ATP levels in mouse SNc. N=6. D) Mitochondrial DNA (mDNA, 16S and ND1) relative to nuclear DNA (nDNA, intron β-globin) by quantitative PCR of mouse striatum and SNc. N=3. E,F) VDAC (E) and PHB1 (F) protein levels in striatum and SNc assayed by western blot and normalized to control. N=6.
FIG. 12. […] A) Schematic for experiments in panels B-J. C57BL/6 mice (8 week-old) received 4 i.p. injections of MPTP (20 mg/kg at 2 hr intervals) or vehicle on day 0. […] B) Example of TH immunostaining in the SNc on days 7 and 14. Scale bar, 500 μm. C-F) Measurement of DOPAC in mouse striatum (C) and SNc (D) and measurement of HVA in striatum (E) and SNc (F). (N=6). G) Example of TH and TUNEL co-staining in the SNc. TH (green), TUNEL (red), and DAPI (nuclei, blue). Scale bar, 25 μm. Quantitative data are in FIG. 2J. H) Left panels are Nissl staining of neurons in the striatum. Samples were obtained 7 days after MPTP injection. Right panels show the quantification. […] Scale bar, 400 μm. N=3 per group. I,J) Behavioral response of mice in the pole test. (I) Time mice took to turn their heads from upward to downward. (J) Time mice took to climb down the pole. N=8.
MPTP was injected (i.p.) on one day at 20 mg/kg for four times at 2-hour intervals, as previously described (4). […] At the end of the drug or saline treatment, behavioral tests including rotarod test and pole test were carried out before the animals were sacrificed.
The rotarod test was carried out using an automated rotarod (E103, UGO BASILE). At a fixed speed of 15 revolutions per minute (rpm), mice were pre-trained for two consecutive days until they were able to remain on the rod for more than 60 seconds. […] The latency to fall was recorded for a maximum recording time of 600 seconds. The behavior was monitored by a video camera.
This test was carried out by leaving a pole in the cage where the mice were housed. The pole test was performed on the 14th day after MPTP injection as previously described (9). The mouse was placed in a head-upward position on top of a vertical pole (diameter 8 mm, height 55 cm) with a ball (diameter 2.5 cm) on the head of the pole. The pole was wrapped with the nylon gauze to prevent the mouse from slipping down. Each mouse was trained twice before testing. The time that the mouse took to turn his head from upward to downward (Time: Turn) and the time the mouse took to reach the floor with his forepaws (Time: Locomotion Activity) were recorded. Each mouse was tested three times with 5 min. intervals, and the average time was quantified.

Row | SMILES | ATP increase with rotenone ([1]; 5% oxygen, 60 hours, with rotenone) | ATP level ([1]; 5% oxygen, 60 hours, without rotenone) | FUS-GFP protein levels ([1]; FUS/actin, western) | aggregation of APPswe-GFP (GFP intensity) ([2]; AZ 1-10 μM) | APPswe-GFP levels (APP/actin ratio, western blot) ([2]; AZ 1-100 μM) | glycolysis [3] | tyrosine hydroxylase levels in MPTP-treated mice (MPTP-treated mice)
1 | COc1cc2nc(N(C)CCCNC(=O)C3CCCO3)nc(N)c2cc1OC (stereo not drawn) [alfuzosin] | abolished | increases | reduced | decrease | reduces | increased | increased
2 | COc1cc2nc(N3CCN(C(=O)C4COc5ccccc5O4)CC3)nc(N)c2cc1OC (stereo not drawn) [doxazosin] |  |  |  |  |  | increased | increased
